Data set [1] concerns adult Schistosoma mansoni. The experiment in a line: schistosome in vitro culture with inhibitor treatment. It is filed as cell-based. The settings on record: for morphological effects (confocal laser scanning microscopy): 5 μM, 6–13 days; for starting concentration with negative influence on worm physiology: pairing stability, egg production, survival, bright-field microscopy.

The target in data set [2] is haem (FeIIIPPIX, π-π dimer). The experiment in a line: spectrophotometric titration of haematin π-π dimer. It is filed as binding. The settings on record: absorption spectrophotometric titration, pH 7.5; read-out: Dissociation Constant KD of haematin-drug complex.
For data set [3] the following is noted: pH 7.5.
Method: Spectrophotometric titration of 1o or 2o by Cu(II) and Fe(III)
Typically, an aliquot of 250 µl (or 500 µl) of a stock solution (~ 0.89 mM) of 1o or 2o was
dissolved in 2.5 (or 2.0 ml) of a mixed solvent made of 0.2 M sodium hepes buffer at pH 7.5
and DMSO (1:1 v/v) in a 1 cm Hellma optical quartz cell. The absorption spectrophotometric
titrations were carried out by adding microvolumes of a stock solution of the metallic cation (5
mM for Cu(II) or 7.36 mM for Fe(III). Aliquots of 5 µl of the stock metal solution were
successively added to the reaction mixture, and after each addition a UV-visible absorption
spectrum (250 nm < λ < 800 nm) was recorded with an Agilent Cary 5000 spectrophotometer. Special care was taken to ensure that equilibrium was attained after
each addition of the substrate. The association constants KL.M (L = 1o, 2o and M = Fe(III) or
Cu(II)) and the stoichiometry of the species at equilibrium were determined by processing the
spectrophotometric data with the Specfit program. The uncertainties on the log K values are given as 3 with  = standard deviation.
A further data set deals with HUVEC. The experiment in a line: antiproliferative activity on HUVEC cells. As to conditions: Homo sapiens, HUVEC, 72 h. It is filed as cell-based. Put shortly: (§1)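 K-562 and HeLa seeded at ∼10,000 cells/well; HeLa preincubated 48 h without compound before cytotoxicity testing. 72 h exposure at 37 °C, 5% CO2; K-562 counted by electronic cell analyzer, HUVEC and HeLa glutaraldehyde-fixed, methylene blue-stained, OD 660 nm; GI50 (antiproliferative) and CC50 (cytotoxicity) derived.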

In data set [4] the test system is P. falciparum (strain 3D7). The experiment in a line: 72 h 3H-hypoxanthine incorporation assay, asexual blood stages. It is filed as cell-based, Plasmodium falciparum.
The test system of data set [5] is Pseudomonas aeruginosa JMRC:ST:337721. The experiment in a line: agar diffusion inhibition zone test. The settings on record: 1o, ciprofloxacin 5 µg/ml, solvent DMSO 16P. It is filed as cell-based. As to the method: The following organisms were tested at the Hans Knöll Institute in Jena, for their susceptibility to the compounds 1o and 2o: Bacillus subtilis JMRC:STI:10880, Staphylococcus aureus JMRC:ST:10760, Escherichia coli JMRC:ST:33699, Pseudomonas aeruginosa JMRC:ST:33772, Pseudomonas aeruginosa JMRC:ST:337721, Staphylococcus aureus JMRC:ST:33793 (multi-resistant), Enterococcus faecalis JMRC:ST:33700 (Vancomycin-resistant), Mycobacterium vaccae JMRC:STI:10670, Sporobolomyces salmonicolor (Basidiomycetes yeast) JMRC:ST:35974, Candida albicans (Ascomycetes yeast) JMRC:STI:25000, Penicillium notatum JMRC:STI:50164.
The bacteria were propagated in Mueller Hinton Broth (Oxoid)[49]. Yeast was propagated in YPD (yeast extract peptone dextrose): 1% yeast extract, 10 g; 2% peptone, 20 g; 2% agar, 20 g; 2% dextrose (glucose), 20 g; Sigma-Y1375. All bacteria and yeast suspensions were freshly made. The cultures were incubated at 37 °C for 16 h. Afterwards, the bacteria concentration from each culture was determined, and 34 ml of nutrient agar was loaded with 10^7 cells. These cultures were stored at 6-8 °C and could be used for seven days for the preparation of test plates. 34 ml of nutrient agar was liquefied and inoculated with the calculated amount of inoculum bacteria suspension at 48–50 °C, a temperature suitable for vegetative forms of bacteria. The inoculated nutrient media (34 ml each) were immediately poured into the prepared test plates (3 mm layer). With a punching device, 12 holes per test plate were punched out. For inhibiting bacterial growth, ciprofloxacin was used as a reference substance. The test substances were dissolved in distilled water, and 5 μg ml^−1 and 50 μl was added to each bacterial culture. For inhibition of fungal growth, amphotericin B served as the reference substance. The test substances were diluted to 10 μg ml^−1 in DMSO/methanol; 50 μl was added to each culture.
Configuring the test plate; volumes/punched hole: 50 μl; test solutions/test plate: 1 × 50 μl reference substance. Test plates were cultivated for 18 h at 37 °C. Analysis: Reading the inhibition zones (IZ): As IZ, the zone in which no growth can be determined with the naked eye is measured; the tiniest colonies on the edge of the inhibition zone were therefore not taken into consideration. The diameter (φ) of the IZ is measured in mm. The analysis of IZ φ is carried out internationally with the help of statistic procedures, especially regression analysis. With each test approach, the reference substance was brought along as a control; if there were deviations from allowed IZ φ, the test was repeated.
The inhibition of bacterial growth was determined using bacterial cultures grown in Müller-Hinton Bouillon, which was configured at barely visible opacity with the McFarland Standard Nr. 0.5, which indicates a bacterial density of 10^8 ml^−1. This bacterial suspension was diluted with Müller-Hinton Bouillon using 2-fold dilution series in the agar diffusion test.
Analysis: The growth in the inhibition zones around the holes containing active substances is thereby compared with the growth in the growth control (no active substance). Bacterial growth was determined according to four measurements: p=presence of colonies in the inhibition zone, P=presence of many colonies in the inhibition zone, A=indication of inhibition, F=facilitation.
(In agar diffusion tests the substance spreads into inoculated agar from a disc or well.)

Another data set relates to haem. The experiment in a line: ESI-MS collision-induced dissociation of haem adducts. It is filed as binding. As to conditions: 50 µM haem and 50 µM substrate; for DV50 (dissociation voltage at 50%) of haem adduct: ESI-CID, 20 V to 400 V; for Bottom plateau (adduct remaining at 400 V): fragmentor voltage 400 V. Put shortly:
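Equimolar haem and substrate (50 µM each) in H2O/CH3CN 5/95 with 0.1% formic acid, analysed by positive-mode ESI-CID with fragmentor 20–400 V in 20 V steps. DV50 is the voltage giving 50% dissociation of [haematin-drug]+ adducts.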

For another data set, the system named is K-562. The experiment in a line: antiproliferative activity on K-562 cells. It is filed as cell-based. As to conditions: Homo sapiens, K562, 72 h. Put shortly:
as §1

The subject of the next data set is P. falciparum strain Dd2. The experiment in a line: 72 h 3H-hypoxanthine incorporation assay, chloroquine-resistant strain. The settings on record: Plasmodium falciparum. It is filed as cell-based.
The nature of data set [6]: cytotoxicity on HeLa cells. It is filed as cell-based. As to conditions: human, HeLa cells. The essentials:
as §1

Setting [7] is: Plasmodium falciparum, 3D7, 72 h 3H-hypoxanthine incorporation, asexual blood stages, read-out: Antiplasmodial activity IC50 Pf (3D7).

“And” between values parts separate entries of the source, which are not always exact repeats. Equal values may be shown once. Read-outs that look alike come from different tables or passages of the source.

For `COc1ccc2c(c1)CCC1C2CC[C@@]2(C)C1CC[C@H]2NCc1cc2ccccc2cc1O` (stereo partly shown) [1o], in data set [1], the “morphological effects (confocal laser scanning microscopy)” value was “swellings and invaginations occurred at the tegument”. For the same compound, the “reduction of egg production and motility” value in [1] (10 µM, starting from days 1 and 2) is listed as “about 75%”. In [1] (20 µM, from day 2 on), the effect on survival result is “nearly all worms were dead”. Besides, in data set [1], the “starting concentration with negative influence on worm physiology” value was 5 μM. In addition, the Kd (in general, the constant that tells how readily two partners part at equilibrium) in [2] worked out at 3300 nM. Also, in data set [3], the “stability constants log KLM of 1:1 complexes” value was 4.1-4.7. Also, the concentration for 50% growth inhibition (GI50) (in general, the concentration that inhibits growth by half) in the data set on HUVEC came out at 108000 nM; in the data set with K-562 it was 5000 nM. The IC50 (usually the midpoint of a concentration-inhibition curve) in [4] (72 h 3H-hypoxanthine incorporation, asexual blood stages, read-out: Antiplasmodial activity IC50 Pf (3D7)) was 4.1 nM; in data set [4] (setting [7]) it was around 5 nM; in [4] (Plasmodium falciparum, 3D7, chloroquine-sensitive and resistant P. falciparum parasites, read-out: IC50 against intraerythrocytic stages), 1 to 5 nM; in the data set on P. falciparum strain Dd2 it was 1 ± 0.9 nM. Further, the “inhibition zone diameter, Pseudomonas aeruginosa JMRC:ST:337721 (B9)” value in [5] (2o 1,000 µg/ml in DMSO) is 0 mm. In addition, the “DV50 (dissociation voltage at 50%) of haem adduct” value in the data set with haem was found to be 290 V. For the same compound, the “Bottom plateau (adduct remaining at 400 V)” value with haem is ~ 20% and 20%. The CC50 (commonly the concentration at which the toxic effect on the cells reaches its halfway point) at 72 h in data set [6] was above 113000 nM.

As for `COc1ccc2c(c1)CCC1C2CC[C@@]2(C)C1CC[C@@H]2NCc1cc2ccccc2cc1O` (stereo partly shown) [2o], in [1], the “morphological effects (confocal laser scanning microscopy)” value is recorded as “the diameter of the testicular lobes was reduced, the ovary was disorganized” and the “starting concentration with negative influence on worm physiology” value came out at 1 μM. Besides, in data set [1] (10 µM), the effect on survival result is “caused the death of the parasites within a week” and the “time to death of worms” value is reported as at most 3 days. For the same compound, the “time to death of worms” value in [1] (20 µM) stood at 1 days. The Kd in [2] was 8300 nM. Besides, the “stability constants log KLM of 1:1 complexes” value in [3] was 4.1-4.7. The GI50 with HUVEC turned out to be 13800 nM. Also, the 50% inhibitory concentration (IC50) in data set [4] (setting [7]) amounted to 6.6 nM. The zone of inhibition in [5] (Pseudomonas aeruginosa, read-out: inhibition zone diameter, Pseudomonas aeruginosa JMRC:ST:337721 (B9)) worked out at 0 mm. Also, in the data set on haem, the “DV50 (dissociation voltage at 50%) of haem adduct” value is reported as 280 V; the “Bottom plateau (adduct remaining at 400 V)” value was 21.7% and ~ 20%. The compound also had a GI50 with K-562 of 2500 nM. Further, in the data set with P. falciparum strain Dd2, the IC50 stood at 2 ± 1.2 nM. Further, the CC50 at 72 h in data set [6] was above 113000 nM.
